This is an account of results in patent US11970731B2, “Enhancement of nucleic acid polymerization by aromatic compounds” (priority 2018, dated 2024).

One assay has as its system DNA polymerase. As to the kind of experiment: Screen of PEMs for enhancement of XNTP polymerization (primer extension, gel electrophoresis). It counts as biochemical. Conditions: for DNA polymerase-mediated primer extension with XNTPs (length of extension products): FIG. 4 gel, 45 mer template, without PEM additive up to only around 14 XNTPs. The protocol:
A representative primer extension reaction may include the following reagents: 2 pmol primer, 2.2 pmol 45 mer oligonucleotide template, 50 pmol of each XNTP (XATP, XCTP, XGTP, and XTTP), 50 mM Tris HCl, pH 6.79, 200 mM NaCl, 20% PEG, 5% NMS, 0.5 nmol polyphosphate 60.19, 0.3 mM MnCl2, and 0.6 μg of purified recombinant DNA polymerase protein. Reactions may be run for 1 hr at 23° C. Reaction products (i.e., constrained Xpandomers) are treated to cleave the phosphoramidate bonds, thereby generating linearized Xpandomers. Reaction products may be analyzed using gel electrophoresis on 4-12% acrylamide gels to resolve and visualize Xpandomer products of different lengths. For the PEM screen described above, PEMs were typically tested in the micro to millimolar range.
Again, this PEM activity is specific for compound 2, as other unrelated aromatic compounds had no effect (lanes 2-7).

Another assay concerns the target T1, C4552 DNA polymerase (Saccharolobus solfataricus, UniProt Q97W02, A155G/A42V/D156R/D292Y/D294N/E291S/E324K/E325K/E327K/E79L/G187P/G299W/I153V/I189F/I248T/I295S/K152A/K317Q/K321Q/K56Y/K78D/L293W/M76W/N188Y/P184Q/Q82W/Q83G/R300S/S297Y/S86E/T290K/T301W/V289W/V296Q).
T1 construct: made in house
As to the kind of experiment: Primer extension assays using three 100mer templates derived from HIV1, 2 and 3 genomes. It counts as biochemical, Sulfolobus solfataricus. Conditions: 0.5 mM PEM; HIV1, HIV2, HIV3 100mer templates; 30 minutes at 23° C.; FIG. 9. The procedure: PEM activity of compounds 9-11 was tested in primer extension assays using three 100mer templates, derived from the HIV1, 2, and 3 genomes. Primer extension reactions included the following reagents: 75 mM TrisCl, pH 8.44, 175 mM NH4OAc, 20% PEG8K, 5% NMS, 0.8 nmol PP-60.20, 0.6 mM MnCl2, 2.3 μg Tth single-strand binding protein (SSB), 0.5 M or 1 M urea, 200 pmol each XNTP, 1.1 pmol template, 1 pmol oligonucleotide primer, 1.2 μg purified recombinant C4552 DNA polymerase, and 0.5 mM PEM. 10 μL primer extension reactions were run for 30 minutes at 23° C. and reaction products were analyzed by gel electrophoresis.

Assay [1] addresses T2, C4760 DNA polymerase (a variant of DPO4) (Saccharolobus solfataricus, UniProt Q97W02, A155G/A42V/D156R/D292Y/D294N/E291S/E324K/E325K/E327K/E63R/E79L/G187P/G299W/I153V/I189F/I248T/I295S/K152A/K317Q/K321Q/K56Y/K78D/L293W/M76W/N188Y/P184Q/Q82W/Q83G/R300S/S297Y/S86E/T290K/T301W/V289W/V296Q).
T2 construct: made in house
As to the kind of experiment: Primer extension assays using the HIV2 100 mer template. It counts as biochemical, Sulfolobus solfataricus. The procedure:
PEM activity of compound 12 was tested in primer extension assays using the HIV2 100 mer template. Primer extension reactions included the following reagents: 50 mM TrisCl, 200 mM NH4OAc, 20% PEG8K, 5% NMS, 0.6 nmol PP-60.20, 0.6 mM MnCl2, 2.75 μg/μl Eco single-strand binding protein (SSB), 1 M urea, 50 pmol each XNTP, 1.1 pmol template, 1 pmol oligonucleotide primer, 1.2 μg/μl purified recombinant C4760 DNA polymerase (SEQ ID NO:2), and 0.5, 1, or 1.5 mM PEM. 10 μL primer extension reactions were run for 30 minutes at 23° C. and reaction products were analyzed by gel electrophoresis. […] Lanes 2-4 show primer extension products from reactions with a structurally related additive lacking robust PEM activity.
PEM activity of compounds 13 and 14 was tested in primer extension assays using the HIV2 100 mer template. Primer extension reactions included the following reagents: 50 mM TrisCl, 200 mM NH4OAc, 20% PEG8K, 5% NMS, 0.6 nmol PP-60.20, 0.6 mM MnCl2, 2.75 μg/μl Eco single-strand binding protein (SSB), 1 M urea, 50 pmol each XNTP, 1.1 pmol template, 1 pmol oligonucleotide primer, 1.2 μg/μl purified recombinant C4760 DNA polymerase (a variant of DPO4, see SEQ ID NO:2), and 0.5, 1, 1.52, or 2.5 mM PEM. 10 μL primer extension reactions were run for 30 minutes at 23° C. and reaction products were analyzed by gel electrophoresis. A representative gel showing primer extension products is presented in FIG. 11 (the position of the full length HIV2 100 mer is indicated by the arrow).
PEM activity of compounds 16, 17, and 18 and combinations thereof were tested in primer extension assays using the HIV2-derived 100mer template. Primer extension reactions included the following reagents: 50 mM TrisCl, 200 mM NH4OAc, 20% or 25% PEG8K, 5% NMS, 0.6 nmol PP-60.20, 0.6 mM MnCl2, 2 μg Kod single-strand binding protein (SSB), 1 M urea, 50 pmol each XNTP, 1 pmol template, 1 pmol oligonucleotide primer, 1.2 μg purified recombinant C4760 DNA polymerase (a variant of DPO4, see SEQ ID NO:2), and 0.5-2 mM PEM. 10 μL primer extension reactions were run for 30 minutes at 37° C. and reaction products were analyzed by gel electrophoresis. A representative gel showing primer extension products is presented in FIG. 13 (the position of a 100mer product is indicated by the arrow).

[2] abbreviates: 0.5, 1, 1.52, or 2.5 mM PEM, Eco SSB, 30 minutes at 23° C., FIG. 11, comparator compound 10 (lanes 1-4).
Setting [3] is: 2 mM compound 16, 0.5, 1, 2, and 3 mM compound 17, Kod SSB, 30 minutes at 37° C., FIG. 13, comparator compound 14 (lane 1).

T2 sequence (Q97W02 other isoform, or with tags, fused parts or gaps with the stated changes): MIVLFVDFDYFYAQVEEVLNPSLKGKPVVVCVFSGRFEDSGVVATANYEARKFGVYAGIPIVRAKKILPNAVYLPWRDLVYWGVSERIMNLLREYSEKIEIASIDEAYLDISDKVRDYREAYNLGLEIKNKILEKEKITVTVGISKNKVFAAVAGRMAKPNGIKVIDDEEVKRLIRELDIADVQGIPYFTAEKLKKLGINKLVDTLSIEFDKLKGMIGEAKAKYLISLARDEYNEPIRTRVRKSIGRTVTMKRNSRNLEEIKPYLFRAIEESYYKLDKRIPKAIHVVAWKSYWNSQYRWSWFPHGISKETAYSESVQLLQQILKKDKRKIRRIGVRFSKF
T1 sequence (Q97W02 other isoform, or with tags, fused parts or gaps with the stated changes): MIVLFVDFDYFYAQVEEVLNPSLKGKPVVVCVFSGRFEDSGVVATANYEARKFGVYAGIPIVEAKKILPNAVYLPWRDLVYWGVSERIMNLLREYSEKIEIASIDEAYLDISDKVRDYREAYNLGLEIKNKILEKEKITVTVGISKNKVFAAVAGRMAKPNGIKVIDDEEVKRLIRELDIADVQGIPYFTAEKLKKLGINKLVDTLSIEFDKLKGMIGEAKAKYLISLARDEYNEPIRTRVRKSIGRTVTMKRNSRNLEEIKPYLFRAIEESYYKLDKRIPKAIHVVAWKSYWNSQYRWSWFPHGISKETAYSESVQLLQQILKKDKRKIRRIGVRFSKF

As to `O=C(O)c1ccc(-n2cc(-c3cncc(-c4cn(-c5ccc(C(=O)O)c(O)c5)nn4)c3)nn2)cc1O` [Compound 2, 4,4′-(pyridine-3,5-diylbis(1H-1,2,3-triazole-4,1-diyl))bis(2-hydroxybenzoic acid)], the “primer extension activity with XNTPs” value in the assay on DNA polymerase (FIG. 5 gel, compound at various concentrations (lanes 8-10), without PEM additive modest activity) is on record as “significantly enhances primer extension activity”.

As for `O=C(O)c1ccc(-n2cc(-c3cccc(-c4cn(-c5ccc(C(=O)O)c(O)c5)nn4)c3)nn2)cc1O` [Compound 3, 4,4′-(1,3-phenylenebis(1H-1,2,3-triazole-4,1-diyl))bis(2-hydroxybenzoic acid)], the “DNA polymerase-mediated primer extension with XNTPs (length of extension products)” value in the assay with DNA polymerase was “enables the polymerase to synthesize considerably longer extension products”.

On to `O=C(O)c1ccc(-n2cc(-c3ccc4[nH]c5ccc(-c6cn(-c7ccc(C(=O)O)c(O)c7)nn6)cc5c4c3)nn2)cc1O` [Compound 4, 4,4′-((9H-carbazole-3,6-diyl)bis(1H-1,2,3-triazole-4,1-diyl))bis(2-hydroxybenzoic acid)], for which the “DNA polymerase-mediated primer extension with XNTPs (length of extension products)” value with DNA polymerase is “enables the polymerase to synthesize considerably longer extension products”.

As to `COc1cc(-c2cn(-c3ccc(C(=O)O)c(O)c3)nn2)nc(-c2cn(-c3ccc(C(=O)O)c(O)c3)nn2)c1` [Compound 9, 4,4′-((4-methoxypyridine-2,6-diyl)bis(1H-1,2,3-triazole-4,1-diyl))bis(2-hydroxybenzoic acid)], the “PEM activity: polymerization of XNTPs into Xpandomer copies of 100 mer templates” value at C4552 DNA polymerase is on record as “enable XNTP polymerization at least as efficiently as compound 1”.

In the case of `O=C(O)c1ccc(-n2cc(-c3cc([N+](=O)[O-])cc(-c4cn(-c5ccc(C(=O)O)c(O)c5)nn4)n3)nn2)cc1O` [Compound 11, 4,4′-((4-nitropyridine-2,6-diyl)bis(1H-1,2,3-triazole-4,1-diyl))bis(2-hydroxybenzoic acid)], the “PEM activity: polymerization of XNTPs into Xpandomer copies of 100 mer templates” value at C4552 DNA polymerase is recorded as “enable XNTP polymerization at least as efficiently as compound 1”.

For the molecule `N#Cc1cc(-c2cn(-c3ccc(O)c(C(=O)O)c3)nn2)nc(-c2cn(-c3ccc(O)c(C(=O)O)c3)nn2)c1` [Compound 12, 5,5′-((4-cyanopyridine-2,6-diyl)bis(1H-1,2,3-triazole-4,1-diyl))bis(2-hydroxybenzoic acid)], the “PEM activity: polymerization of XNTPs into Xpandomer copies of the 100 mer template” value (from here on “PEM activity … of the 100 mer template”) in assay [1] (0.5, 1, or 1.5 mM PEM, Eco SSB, 30 minutes at 23° C., FIG. 10, comparable to compound 10 (lane 1)) was “enables polymerization of XNTPs into full length Xpandomer copies of the 100 mer template”.

For `Cc1cc(-c2cn(-c3ccc(C(=O)O)c(O)c3)nn2)nc(-c2cn(-c3ccc(C(=O)O)c(O)c3)nn2)c1` [Compound 13, 4,4′-((4-methylpyridine-2,6-diyl)bis(1H-1,2,3-triazole-4,1-diyl))bis(2-hydroxybenzoic acid)], the “PEM activity … of the 100 mer template” value in assay [1] (setting [2]) is recorded as “enables polymerization of XNTPs into full length Xpandomer copies of the 100 mer template in a manner comparable to that of compound 10”.

Consider `CCOC(=O)c1cc(-c2cn(-c3ccc(C(=O)O)c(O)c3)nn2)nc(-c2cn(-c3ccc(C(=O)O)c(O)c3)nn2)c1` [Compound 14, 4,4′-((4-(ethoxycarbonyl)pyridine-2,6-diyl)bis(1H-1,2,3-triazole-4,1-diyl))bis(2-hydroxybenzoic acid)], for which, in assay [1] (setting [2]), the “PEM activity … of the 100 mer template” value was “enables polymerization of XNTPs into full length Xpandomer copies of the 100 mer template in a manner comparable to that of compound 10”.

Take `COC(=O)c1cc(-c2cn(-c3ccc(C(=O)O)c(O)c3)nn2)nc(-c2cn(-c3ccc(C(=O)O)c(O)c3)nn2)c1` [Compound 16, 4,4′-((4-(methoxycarbonyl)pyridine-2,6-diyl)bis(1H-1,2,3-triazole-4,1-diyl))bis(2-hydroxybenzoic acid)]: in assay [1] (setting [3]), the “PEM activity … of the 100 mer template” value is recorded as “enable polymerization of XNTPs into lengthy Xpandomer copies of the 100 mer template in a manner comparable to that of compound 14”.

Turning to `CCNC(=O)c1cc(-c2cn(-c3ccc(C(=O)O)c(O)c3)nn2)nc(-c2cn(-c3ccc(C(=O)O)c(O)c3)nn2)c1` [Compound 17, 4,4′-((4-(ethylcarbamoyl)pyridine-2,6-diyl)bis(1H-1,2,3-triazole-4,1-diyl))bis(2-hydroxybenzoic acid)], the “PEM activity … of the 100 mer template” value in assay [1] (setting [3]) is reported as “enable polymerization of XNTPs into lengthy Xpandomer copies of the 100 mer template in a manner comparable to that of compound 14”.
